According to patent publication US20230158025A1 (UNIVERSITY OF UTAH RESEARCH FOUNDATION, priority 2020, published 2023):
pIC50: −log10 of the molar value. Read-outs that look alike come from different tables or passages of the source.

Tests used:
[1] = aqueous kinetic solubility
recombinant mouse GALK1 = recombinant mouse GALK1 (Mus musculus, UniProt Q9R0N0); test: mGALK1 biochemical activity assay (Kinase-Glo Plus, ATP depletion)
Experimental: In vitro hGALK1 activity assays were performed as previously described. Liu et al., Bioorg. […] The biochemical assay was performed by coupling the activity of recombinant human or mouse GALK1 to the Kinase-Glo Plus luminescent ATP detection kit, using ATP depletion as a measure of GALK1 turnover. […] One μL/well of GALK-galactose solution (5 nM GALK1, 100 μM galactose) in assay buffer was then added, yielding a final reaction volume of 4 μL/well. Following a 1-hour room temperature incubation, 4 μL of Kinase-Glo Plus detection reagent was added to provide an ATP-dependent luminescent readout (final assay volume: 8 μL/well).

[2] = rat microsomal stability (RLM)
recombinant human GALK1 = recombinant human GALK1 (Homo sapiens, UniProt P51570); test: hGALK1 biochemical activity assay (Kinase-Glo Plus, ATP depletion)
Chain of recombinant human GALK1 (P51570 whole entry): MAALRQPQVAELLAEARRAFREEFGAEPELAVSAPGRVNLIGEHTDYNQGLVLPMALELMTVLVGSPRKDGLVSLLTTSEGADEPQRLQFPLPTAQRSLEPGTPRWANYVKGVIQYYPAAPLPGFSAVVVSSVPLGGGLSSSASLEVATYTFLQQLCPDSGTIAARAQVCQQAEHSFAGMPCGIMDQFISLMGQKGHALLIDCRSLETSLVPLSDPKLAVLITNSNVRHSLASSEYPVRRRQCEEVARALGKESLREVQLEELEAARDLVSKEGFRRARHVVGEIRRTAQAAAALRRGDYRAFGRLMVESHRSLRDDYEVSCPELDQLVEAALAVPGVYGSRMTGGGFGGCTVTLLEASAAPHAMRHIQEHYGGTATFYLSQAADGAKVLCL
Experimental: In vitro hGALK1 activity assays were performed as previously described. Liu et al., Bioorg. Med. Chem. Lett. 25(3): 721-727 (2015), which is incorporated by reference herein for the specific teachings thereof. The biochemical assay was performed by coupling the activity of recombinant human or mouse GALK1 to the Kinase-Glo Plus luminescent ATP detection kit, using ATP depletion as a measure of GALK1 turnover. Specifically, three μL/well of ATP substrate solution (35 μM ATP) in assay buffer (20 mM HEPES pH 8.0, 5 mM MgCl2, 60 mM NaCl, 1 mM DTT, 0.01% BSA final concentration) was dispensed into 1536-well assay plates (Greiner, white solid-bottom medium-binding plates). Aliquots of compound (23 nL solubilized in DMSO) were transferred to the assay plates using a Kalypsys 1536-well pintool such that 11 concentrations with 1/3 dilutions ranging from 57.4 μM-0.97 nM are tested. One μL/well of GALK-galactose solution (5 nM GALK1, 100 μM galactose) in assay buffer was then added, yielding a final reaction volume of 4 μL/well. Following a 1-hour room temperature incubation, 4 μL of Kinase-Glo Plus detection reagent was added to provide an ATP-dependent luminescent readout (final assay volume: 8 μL/well).

[3] = Tables 2-15, 35 μM ATP, 100 μM galactose, 1 h, bracketed figure after some values is undefined and not reported, read-out: mGALK IC50
[4] = recombinant mouse GALK1, Kinase-Glo Plus ATP depletion, read-out: mGALK
[5] = Tables 2-15, 35 μM ATP, 100 μM galactose, 1 h, bracketed figure after some values (e.g. −1.2) is undefined and not reported, read-out: hGALK IC50
[6] = recombinant human GALK1, Kinase-Glo Plus ATP depletion, read-out: hGALK
[7] = Tables 2-15, 35 μM ATP, 100 μM galactose, 1 h, bracketed figure after some values is undefined and not reported
[8] = recombinant mouse GALK1, Kinase-Glo Plus ATP depletion
[9] = recombinant human GALK1, Kinase-Glo Plus ATP depletion
[10] = recombinant mouse GALK1, Kinase-Glo Plus ATP depletion, bracketed figure in the cell, e.g. (−1.2), is not defined in the text shown, read-out: mGALK
[11] = microsomal stability half-life, minutes
[12] = recombinant human GALK1, Kinase-Glo Plus ATP depletion, bracketed figure in the cell, e.g. (−1.2), is not defined in the text shown, read-out: hGALK
[13] = Tables 2-15, 35 μM ATP, 100 μM galactose, 1 h, bracketed figure after some values (e.g. −1.2) is undefined and not reported

Chain of recombinant mouse GALK1 (Q9R0N0 whole entry): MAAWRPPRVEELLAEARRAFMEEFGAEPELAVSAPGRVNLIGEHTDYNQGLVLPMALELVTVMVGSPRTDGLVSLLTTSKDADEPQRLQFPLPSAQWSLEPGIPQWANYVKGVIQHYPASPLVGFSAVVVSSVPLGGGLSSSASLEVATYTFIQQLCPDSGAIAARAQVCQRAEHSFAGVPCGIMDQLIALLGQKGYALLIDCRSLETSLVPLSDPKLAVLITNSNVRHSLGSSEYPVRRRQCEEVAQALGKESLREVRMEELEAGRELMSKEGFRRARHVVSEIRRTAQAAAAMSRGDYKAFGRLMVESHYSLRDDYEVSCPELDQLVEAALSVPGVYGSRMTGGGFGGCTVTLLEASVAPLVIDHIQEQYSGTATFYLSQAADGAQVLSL

Sol. ([1]; aqueous kinetic solubility) [µg/mL] | pIC50 (recombinant mouse GALK1; [4]) | Metab. Stabil. (m) ([2]; microsomal stability half-life) | pIC50 (recombinant human GALK1; [6]) | mGALK (μM) (recombinant mouse GALK1; [8]) | Compound | further results
<1 | 4.76 | >30 | 5.11 |  | CC1=C(C(=O)Nc2cccc(C(N)=O)c2)C(c2ccccc2Cl)N=C(Nc2nc3ccccc3o2)N1 (stereo not drawn) [Compound 177, 2-(benzo[d]oxazol-2-ylamino)-N-(3-carbamoylphenyl)-4-(2-chlorophenyl)-6-methyl-1,4-dihydropyrimidine-5-carboxamide] | pIC50 (recombinant mouse GALK1; [3]): 4.76; pIC50 (recombinant human GALK1; [5]): 5.11
<1 |  | 11.34 | 5.11 | in- active | CC1=C(C(=O)NCc2ccc(F)cc2)C(c2ccccc2Cl)N=C(Nc2nc3ccccc3o2)N1 (stereo not drawn) [Compound 217] | mGALK IC50 (recombinant mouse GALK1; [7]): inactive; pIC50 (recombinant human GALK1; [5]): 5.11
<1 | 5.01 | >30 | 5.11 |  | CC1=C(C(=O)Nc2ccccc2F)C(c2ccccc2Cl)N=C(Nc2nc3ccccc3o2)N1 (stereo not drawn) [Compound 157, 2-(benzo[d]oxazol-2-ylamino)-N-(2-fluorophenyl)-4-(2-chlorophenyl)-6-methyl-1,4-dihydropyrimidine-5-carboxamide] | pIC50 (recombinant mouse GALK1; [3]): 5.01
<1 | 4.91 | >30 | 5.16 |  | CC1=C(C(=O)Nc2cccc(F)c2)C(c2ccccc2Cl)N=C(Nc2nc3ccccc3o2)N1 (stereo not drawn) [Compound 158, 2-(benzo[d]oxazol-2-ylamino)-N-(3-fluorophenyl)-4-(2-chlorophenyl)-6-methyl-1,4-dihydropyrimidine-5-carboxamide] | pIC50 (recombinant mouse GALK1; [3]): 4.91
<1 |  | 30.79 | 5.31 | in- active | CC1=C(C(=O)Nc2ccc(Cl)cn2)C(c2ccccc2Cl)N=C(Nc2nc3ccccc3o2)N1 (stereo not drawn) [Compound 153, 2-(benzo[d]oxazol-2-ylamino)-4-(2-chlorophenyl)-N-(5-chloropyridin-2-yl)-6-methyl-1,4-dihydropyrimidine-5-carboxamide] | 
<1 |  | 4.223 |  | in- active | CC1=C(C(=O)NCc2ccccc2Cl)C(c2ccccc2Cl)N=C(Nc2nc3ccccc3o2)N1 (stereo not drawn) [Compound 216, 2-(benzo[d]oxazol-2-ylamino)-N-(2-chlorobenzyl)-4-(2-chlorophenyl)-6-methyl-1,4-dihydropyrimidine-5-carboxamide] | mGALK IC50 (recombinant mouse GALK1; [7]): inactive; hGALK IC50 (recombinant human GALK1; [13]): inactive; hGALK (μM) (recombinant human GALK1; [9]): in- active
10.0 | 5.36 | 72.47 | 5.21 |  | CC1=C(C(=O)Nc2ccc(CN)cc2)C(c2ccccc2Cl)N=C(Nc2nc3ccccc3o2)N1 (stereo not drawn) [Compound 169, N-(4-(aminomethyl)phenyl)-2-(benzo[d]oxazol-2-ylamino)-4-(2-chlorophenyl)-6-methyl-1,4-dihydropyrimidine-5-carboxamide] | pIC50 (recombinant mouse GALK1; [3]): 5.36; pIC50 (recombinant human GALK1; [5]): 5.21
60.3 |  | >30 | 5.36 |  | CC1=C(C(=O)Nc2cncc(C(=O)O)c2)C(c2ccccc2Cl)N=C(Nc2nc3ccccc3o2)N1 (stereo not drawn) [Compound 202, 5-(2-(benzo[d]oxazol-2-ylamino)-4-(2-chlorophenyl)-6-methyl-1,4-dihydropyrimidine-5-carboxamido)nicotinic acid] | pIC50 (recombinant human GALK1; [5]): 5.36
 | 4.71 |  | 4.91 |  | CC1=C(C(=O)Nc2ccc(CO)cn2)C(c2ccccc2Cl)N=C(Nc2nc3ccc(F)cc3o2)N1 (stereo not drawn) [Compound 42, 4-(2-chlorophenyl)-2-((6-fluorobenzo[d]oxazol-2-yl)amino)-N-(5-(hydroxymethyl)pyridin-2-yl)-6-methyl-1,4-dihydropyrimidine-5-carboxamide] | Sol. [1]: <1 µg/mL; Metab. Stabil. (m) ([2]; microsomal half-life): >30 m

Second part, the molecule before the results:

Compound | Sol. ([1]; aqueous kinetic solubility) [µg/mL] | pIC50 (recombinant mouse GALK1; [4]) | Metab. Stabil. (m) ([2]; microsomal stability half-life) | pIC50 (recombinant human GALK1; [6]) | mGALK (μM) (recombinant mouse GALK1; [8]) | further results
COc1ccc(C(=O)O)cc1NC(=O)C1=C(C)NC(Nc2nc3ccc(F)cc3o2)=NC1c1ccccc1Cl (stereo not drawn) [Compound 27, 3-(4-(2-chlorophenyl)-2-((6-fluorobenzo[d]oxazol-2-yl)amino)-6-methyl-1,4-dihydropyrimidine-5-carboxamido)-4-methoxybenzoic acid] |  | 4.91 |  | 5.66 |  | Sol. [1]: 53.3 µg/mL; Metab. Stabil. (m) ([2]; microsomal half-life): >30 m
CCOC(=O)C1=C(C)NC(Nc2nc3ccccc3o2)=NC1c1ccccc1Cl (stereo not drawn) [Compound 239, ethyl 2-(benzo[d]oxazol-2-ylamino)-4-(2-chlorophenyl)-6-methyl-1,4-dihydropyrimidine-5-carboxylate] | <1 | 4.86 | 19.30 |  |  | hGALK (μM) (recombinant human GALK1; [9]): in- active
COC(=O)C1=C(C(F)(F)F)NC(Nc2nc3ccccc3o2)=NC1c1ccccc1Cl (stereo not drawn) [Compound 241, methyl 2-(benzo[d]oxazol-2-ylamino)-4-(2-chlorophenyl)-6-(trifluoromethyl)-1,4-dihydropyrimidine-5-carboxylate] | 2.65 |  | 10.46 |  | in- active | hGALK (μM) (recombinant human GALK1; [9]): in- active
O=C1NCCC2=C1C(c1ccccc1Cl)N=C(Nc1nc3ccccc3o1)N2 (stereo not drawn) [Compound 245, 2-(benzo[d]oxazol-2-ylamino)-4-(2-chlorophenyl)-4,6,7,8-tetrahydropyrido[4,3-d]pyrimidin-5(1H)-one] | <1 |  |  |  |  | pIC50 (recombinant mouse GALK1; [10]): 4.66; Metab. Stabil. (m) [2, 11]: 27.12 m; pIC50 (recombinant human GALK1; [12]): 4.76
CC1=C(C(=O)Nc2cc(C(=O)O)ccn2)C(c2ccccc2Cl)N=C(Nc2nc3ccccc3o2)N1C (stereo not drawn) [Compound 273, 2-(2-(benzo[d]oxazol-2-ylamino)-4-(2-chlorophenyl)-1,6-dimethyl-1,4-dihydropyrimidine-5-carboxamido)isonicotinic acid] | >76 |  |  |  |  | pIC50 (recombinant mouse GALK1; [10]): 4.46; Metab. Stabil. (m) [2, 11]: >30 m; pIC50 (recombinant human GALK1; [12]): 4.66
CC1=C(C(=O)Nc2cc(C(=O)O)ccn2)C(c2ccccc2Cl)N=C(Nc2nc3ccccc3o2)N1CC(=O)O (stereo not drawn) [Compound 272] | >83 |  |  |  |  | pIC50 (recombinant mouse GALK1; [10]): 4.86; Metab. Stabil. (m) [2, 11]: >30 m; pIC50 (recombinant human GALK1; read-out: hGALK): 5.46
CC1=C(C(=O)Nc2ccc(C(=O)N3CCOCC3)cc2)C(c2ccccc2Cl)N=C(Nc2nc3ccccc3o2)N1 (stereo not drawn) [Compound 182, 2-(benzo[d]oxazol-2-ylamino)-4-(2-chlorophenyl)-6-methyl-N-(4-(morpholine-4-carbonyl)phenyl)-1,4-dihydropyrimidine-5-carboxamide] | <1 | 4.66 | >30 | 4.71 |  | pIC50 (recombinant mouse GALK1; [3]): 4.66; pIC50 (recombinant human GALK1; [5]): 4.71
CNCCNC(=O)C1=C(C)NC(Nc2nc3ccc(F)cc3o2)=NC1c1ccccc1Cl (stereo not drawn) [Compound 33, 4-(2-chlorophenyl)-2-((6-fluorobenzo[d]oxazol-2-yl)amino)-6-methyl-N-(2-(methylamino)ethyl)-1,4-dihydropyrimidine-5-carboxamido] |  | 5.21 |  | 4.81 |  | Sol. [1]: >67 µg/mL; Metab. Stabil. (m) ([2]; microsomal half-life): >30 m
CCOC(=O)C1=C(C(C)C)NC(Nc2nc3ccccc3o2)=NC1c1ccccc1Cl (stereo not drawn) [Compound 240, ethyl 2-(benzo[d]oxazol-2-ylamino)-4-(2-chlorophenyl)-6-isopropyl-1,4-dihydropyrimidine-5-carboxylate] | <1 |  | 57.5 |  | in- active | hGALK (μM) (recombinant human GALK1; [9]): in- active
CC1=C(C(=O)NCc2cn(C)cn2)[C@@H](c2ccccc2Cl)N=C(Nc2nc3ccccc3o2)N1 [Compound 236, (S)-2-(benzo[d]oxazol-2-ylamino)-4-(2-chlorophenyl)-6-methyl-N-((1-methyl-1H-imidazol-4-yl)methyl)-1,4-dihydropyrimidine-5-carboxamide] | 40.5 |  | 8.726 |  | in- active | mGALK IC50 (recombinant mouse GALK1; [7]): inactive; hGALK IC50 (recombinant human GALK1; [13]): inactive; hGALK (μM) (recombinant human GALK1; [9]): in- active
